Assay results published in patent US10583154B2, “Multi-dose compositions containing an antimicrobial polyamide or octenidine preservative” (priority 2016, dated 2020).

Legend:
[1] = cited from earlier work
[2] = system: Aspergillus brasiliensis; test: Antimicrobial preservative efficacy test (dilution neutralization), preservative as WFI solution; type: cell-based
Source text: (§1) Preservatives are commonly used in multi-dose formulations, including animal vaccines, to prevent bacterial or fungal growth in field conditions and are employed to minimize contamination of the formulations during repeated (non-sterile) punctures into the vial. Preservatives must pass antimicrobial effectiveness testing (AET), as described in the US pharmacopeia. As disclosed herein, Applicants performed the antimicrobial tests according to United States Pharmacopeia (USP), British Pharmacopeia (BP), and European Pharmocopeia (EP). Four test organisms were used: Candida albicans, Pseudomonas aeruginosa, Staphylococcus aureus, and A. brasiliensis. And while thimerosal and formol continue to play an important role in veterinary vaccines, European authorities encourage the development of vaccines that are free from those compounds.
(§2) For each concentration of polyamide polymer, dilution neutralization was carried out by inoculating 10 mL of test product with 100 μL of each test strain. Countings were performed at Do, 6 h (bacteria only), 24 h (bacteria only), D7, D14 and D28. For each counting, 1 mL of the sample was neutralized in 9 mL of neutralizing solution (10 minutes), for S. aureus, a second 1:10 dilution in the same solution. Then 1 mL of the mixture was transferred in Petri dishes and covered with 15 mL of agar medium (Trypcase Soy Agar for bacteria and Sabouraud Dextrosed Agar for yeasts and molds). The countings were achieved after 24-48 hours incubation at 32.5° C.±2.5° C. for bacteria, and 48-72 hours at 22.5° C.[…] for yeasts and molds. The test micro-organisms included Staphylococcus aureus, Pseudomonas aeruginosa, Candida albicans and Aspergillus brasiliensis. Finally, the neutralization solution contained: Tween 80 (10%), lecithin (2%), saponin (2%), sodium thiosulfate (0.5%) and buffered solution chloride. The saponin was from the bark of Quillaja saponaria.
(§3) For each concentration of octenidine, dilution neutralization was carried out as disclosed in Example 1.

[3] = system: Staphylococcus aureus; test: as above; type: cell-based
Source text: as §1, §2, §3

[4] = system: Pseudomonas aeruginosa; test: as above; type: cell-based
Source text: as §1, §2, §3

[5] = system: Candida albicans; test: as above; type: cell-based
Source text: as §1, §2, §3

[6] = Solubility in buffer; type: physicochemical
Procedure: In some embodiments, buffered solutions containing relatively lower amounts of salts, particularly including phosphate salts, are added to the immunogenic composition, or other preserved multi-dose formulation, to improve the solubility of the octenidine. This is based on Applicants' unexpected discovery that octenidine is less soluble in routinely used phosphate buffered saline (PBS). […] As such, in some embodiments, multi-dose formulations including octenidine contain less phosphate than standard PBS. Accordingly, in some embodiments, the buffer may contain for 100 L about 5 g of NaH2PO4 and about 200 g of Sodium bicarbonate (instead of standard PBS, which contains about a 20:1 ratio of Na2HPO4 to KH2PO4).

[7] = system: panel of pathogens; settings: cited from earlier work
[8] = system: wound healing; settings: cited from earlier work
[9] = system: S. aureus, P. aeruginosa, C. albicans, A. brasiliensis; test: Preservative efficacy in TS6 oil-in-water emulsion vaccine, overall verdict; type: cell-based; settings: 100 μg/ml alone; oily vaccine environment; previous experiment
Procedure: as §2
For each concentration of preservative (or preservative combination), dilution neutralization and other testing was carried out as disclosed in Example 1. The “TS6” formulation is an oil-in-water emulsion, described in U.S. Pat. No. 7,371,395 B2 (to Merial, Inc.; see especially Example 1). […]

[10] = in vivo, iv

CCCCCCCCN=c1ccn(CCCCCCCCCCn2ccc(=NCCCCCCCC)cc2)cc1.Cl.Cl [Octenidine Dihydrochloride, Octenidine dihydrochloride]
LD50 on rat [1]: LD50 on rat = 10 mg/kg | log reduction ([2]; 0.001 mg/mL, 7 d): 0 log | viable count ([2]; 0.001 mg/mL, 7 d): 1.7 × 10^5 | log reduction ([2]; 0.001 mg/mL, 14 d): 0.1 log | viable count ([2]; 0.001 mg/mL, 14 d): 1.4 × 10^5 | log reduction ([2]; 0.001 mg/mL, 28 d): 0.3 log | viable count ([2]; 0.001 mg/mL, 28 d): 1.0 × 10^5 | viable count ([2]; 0.001 mg/mL, T0): 2.4 × 10^5 | log reduction ([2]; 0.01 mg/mL, 7 d): 0.7 log | viable count ([2]; 0.01 mg/mL, 7 d): 3.8 × 10^4 | log reduction ([2]; 0.01 mg/mL, 14 d): 0.8 log | viable count ([2]; 0.01 mg/mL, 14 d): 3.2 × 10^4 | log reduction ([2]; 0.01 mg/mL, 28 d): 0.8 log | viable count ([2]; 0.01 mg/mL, T0): 2.8 × 10^5 | log reduction ([2]; 0.1 mg/mL, 7 d): 0.4 log | viable count ([2]; 0.1 mg/mL, 7 d): 7.5 × 10^4 | log reduction ([2]; 0.1 mg/mL, 14 d): 1.3 log | viable count ([2]; 0.1 mg/mL, 14 d): 1.0 × 10^4 | log reduction ([2]; 0.1 mg/mL, 28 d): 0.8 log | viable count ([2]; 0.1 mg/mL, 28 d): 2.8 × 10^4 | viable count ([2]; 0.1 mg/mL, T0): 1.7 × 10^5 | log reduction ([2]; 1 mg/mL, 7 d): 0.8 log | viable count ([2]; 1 mg/mL, 7 d): 2.9 × 10^4 | log reduction ([2]; 1 mg/mL, 14 d): 1 log | viable count ([2]; 1 mg/mL, 14 d): 1.7 × 10^4 | log reduction ([2]; 1 mg/mL, 28 d): 1.1 log | viable count ([2]; 1 mg/mL, 28 d): 1.4 × 10^4 | viable count ([2]; 1 mg/mL, T0): 1.6 × 10^5 | log reduction ([3]; 0.001 mg/mL, 6 h): 3.8 log | viable count ([3]; 0.001 mg/mL, 6 h): 1.6 × 10^2 | log reduction ([3]; 0.001 mg/mL, 24 h): >5 log | viable count ([3]; 0.001 mg/mL, 24 h): <10 | log reduction ([3]; 0.001 mg/mL, 7 d): 3.7 log | viable count ([3]; 0.001 mg/mL, 7 d): 2 × 10^2 | log reduction ([3]; 0.001 mg/mL, 14 d): 3.9 log | viable count ([3]; 0.001 mg/mL, 14 d): 1.4 × 10^2 | log reduction ([3]; 0.001 mg/mL, 28 d): 4.4 log | viable count ([3]; 0.001 mg/mL, 28 d): 40 | viable count ([3]; 0.001 mg/mL, T0): 1.6 × 10^5 | log reduction ([3]; 0.01 mg/mL, 6 h): >5 log | viable count ([3]; 0.01 mg/mL, 6 h): <10 | log reduction ([3]; 0.01 mg/mL, 24 h): >5 log | viable count ([3]; 0.01 mg/mL, 24 h): <10 | log reduction ([3]; 0.01 mg/mL, 7 d): >5 log | viable count ([3]; 0.01 mg/mL, 7 d): <10 | log reduction ([3]; 0.01 mg/mL, 14 d): >5 log | viable count ([3]; 0.01 mg/mL, 14 d): <10 | log reduction ([3]; 0.01 mg/mL, 28 d): >5 log | viable count ([3]; 0.01 mg/mL, 28 d): <10 | viable count ([3]; 0.01 mg/mL, T0): 10 | log reduction ([3]; 0.1 mg/mL, 6 h): >5 log | viable count ([3]; 0.1 mg/mL, 6 h): <10^2 | log reduction ([3]; 0.1 mg/mL, 24 h): >5 log | viable count ([3]; 0.1 mg/mL, 24 h): <10^2 | log reduction ([3]; 0.1 mg/mL, 7 d): >5 log | viable count ([3]; 0.1 mg/mL, 7 d): <10^2 | log reduction ([3]; 0.1 mg/mL, 14 d): >5 log | viable count ([3]; 0.1 mg/mL, 14 d): <10^2 | log reduction ([3]; 0.1 mg/mL, 28 d): >5 log | viable count ([3]; 0.1 mg/mL, 28 d): <10^2 | viable count ([3]; 0.1 mg/mL, T0): <10 | log reduction ([3]; 1 mg/mL, 6 h): >4 log | viable count ([3]; 1 mg/mL, 6 h): <10^2 | log reduction ([3]; 1 mg/mL, 24 h): >4 log | viable count ([3]; 1 mg/mL, 24 h): <10^2 | log reduction ([3]; 1 mg/mL, 7 d): >4 log | viable count ([3]; 1 mg/mL, 7 d): <10^2 | log reduction ([3]; 1 mg/mL, 14 d): >4 log | viable count ([3]; 1 mg/mL, 14 d): <10^2 | log reduction ([3]; 1 mg/mL, 28 d): >4 log | viable count ([3]; 1 mg/mL, 28 d): <10^2 | viable count ([3]; 1 mg/mL, T0): <10^2 | log reduction ([4]; 0.001 mg/mL, 6 h): 3 log | viable count ([4]; 0.001 mg/mL, 6 h): 1.0 × 10^3 | log reduction ([4]; 0.001 mg/mL, 24 h): 3 log | viable count ([4]; 0.001 mg/mL, 24 h): 1.0 × 10^4 | log reduction ([4]; 0.001 mg/mL, 7 d): 0 log | viable count ([4]; 0.001 mg/mL, 7 d): >3.3 × 10^6 | log reduction ([4]; 0.001 mg/mL, 14 d): 0 log | viable count ([4]; 0.001 mg/mL, 14 d): >3.3 × 10^6 | log reduction ([4]; 0.001 mg/mL, 28 d): 0 log | viable count ([4]; 0.001 mg/mL, 28 d): >3.3 × 10^6 | viable count ([4]; 0.001 mg/mL, T0): 7.5 × 10^4 | log reduction ([4]; 0.01 mg/mL, 6 h): >5.1 log | viable count ([4]; 0.01 mg/mL, 6 h): <10 | log reduction ([4]; 0.01 mg/mL, 24 h): >5.1 log | viable count ([4]; 0.01 mg/mL, 24 h): <10 | log reduction ([4]; 0.01 mg/mL, 7 d): 4.4 log | viable count ([4]; 0.01 mg/mL, 7 d): <10 | log reduction ([4]; 0.01 mg/mL, 14 d): 4.4 log | viable count ([4]; 0.01 mg/mL, 14 d): <10 | log reduction ([4]; 0.01 mg/mL, 28 d): 4.4 log | viable count ([4]; 0.01 mg/mL, 28 d): <10 | viable count ([4]; 0.01 mg/mL, T0): <10 | log reduction ([4]; 0.1 mg/mL, 6 h): >5.1 log | viable count ([4]; 0.1 mg/mL, 6 h): <10 | log reduction ([4]; 0.1 mg/mL, 24 h): >5.1 log | viable count ([4]; 0.1 mg/mL, 24 h): <10 | log reduction ([4]; 0.1 mg/mL, 7 d): 4.4 log | viable count ([4]; 0.1 mg/mL, 7 d): 50 | log reduction ([4]; 0.1 mg/mL, 14 d): >5.1 log | viable count ([4]; 0.1 mg/mL, 14 d): <10 | log reduction ([4]; 0.1 mg/mL, 28 d): >5.1 log | viable count ([4]; 0.1 mg/mL, 28 d): <10 | viable count ([4]; 0.1 mg/mL, T0): <10 | log reduction ([4]; 1 mg/mL, 6 h): >5.1 log | viable count ([4]; 1 mg/mL, 6 h): <10 | log reduction ([4]; 1 mg/mL, 24 h): >5.1 log | viable count ([4]; 1 mg/mL, 24 h): <10 | log reduction ([4]; 1 mg/mL, 7 d): >5.1 log | viable count ([4]; 1 mg/mL, 7 d): <10 | log reduction ([4]; 1 mg/mL, 14 d): >5.1 log | viable count ([4]; 1 mg/mL, 14 d): <10 | log reduction ([4]; 1 mg/mL, 28 d): >5.1 log | viable count ([4]; 1 mg/mL, 28 d): <10 | viable count ([4]; 1 mg/mL, T0): <10 | log reduction ([5]; 0.001 mg/mL, 7 d): 4 log | viable count ([5]; 0.001 mg/mL, 7 d): 20 | log reduction ([5]; 0.001 mg/mL, 14 d): 4.3 log | viable count ([5]; 0.001 mg/mL, 14 d): 10 | log reduction ([5]; 0.001 mg/mL, 28 d): >4.3 log | viable count ([5]; 0.001 mg/mL, 28 d): <10 | viable count ([5]; 0.001 mg/mL, T0): 1.7 × 10^5 | log reduction ([5]; 0.01 mg/mL, 7 d): >4.3 log | viable count ([5]; 0.01 mg/mL, 7 d): <10 | log reduction ([5]; 0.01 mg/mL, 14 d): >4.3 log | viable count ([5]; 0.01 mg/mL, 14 d): <10 | log reduction ([5]; 0.01 mg/mL, 28 d): >4.3 log | viable count ([5]; 0.01 mg/mL, 28 d): <10 | viable count ([5]; 0.01 mg/mL, T0): 2 × 10^3 | log reduction ([5]; 0.1 mg/mL, 7 d): >4.3 log | viable count ([5]; 0.1 mg/mL, 7 d): <10 | log reduction ([5]; 0.1 mg/mL, 14 d): >4.3 log | viable count ([5]; 0.1 mg/mL, 14 d): <10 | log reduction ([5]; 0.1 mg/mL, 28 d): >4.3 log | viable count ([5]; 0.1 mg/mL, 28 d): <10 | viable count ([5]; 0.1 mg/mL, T0): <10 | log reduction ([5]; 1 mg/mL, 7 d): >4.3 log | viable count ([5]; 1 mg/mL, 7 d): <10 | log reduction ([5]; 1 mg/mL, 14 d): >4.3 log | viable count ([5]; 1 mg/mL, 14 d): <10 | log reduction ([5]; 1 mg/mL, 28 d): >4.3 log | viable count ([5]; 1 mg/mL, 28 d): <10 | viable count ([5]; 1 mg/mL, T0): <10 | solubility ([6]; routinely used phosphate buffered saline (PBS)): less soluble | solubility ([6]; sodium phosphate replaced with sodium bicarbonate): provided the required solubility | Efficacy: spectrum [7]: Broad spectrum | MIC [7]: MIC ≤1 μg/ml | Cytotoxicity data: demonstrate any adverse effect to wound healing [8]: Cytotoxicity data failed to | preservative efficacy [9]: did not exhibit satisfactory preservative efficacy

4,4′-trimethylene dipiperidine bispropanoic acid-co-1,3-diamino propane
maximum tolerated dose [10]: ~40 mg/kg
